Like-named read-outs stand apart in the source and are kept apart here.
What was measured:
[1] = tested on: LUC-transfected L. donovani; test: Anti-leishmanial efficacy (EC50) in in vitro infected peritoneal macrophages; format: cell-based, Leishmania donovani; conditions: 48 h, read-out: Peritoneal Macrophages EC50 (mean±SE)
Experimental: Macrophages from uninfected hamsters were obtained by peritoneal lavage with DMEM (Gibco) and Heparin (2 units/ml; Elkins-Sinn, Cherry Hill NJ). The cells were washed twice by centrifugation and re-suspended in culture medium composed of DMEM, 5% FBS, 1 mM sodium pyruvate (Gibco), 1X MEM amino acids solution (Sigma), 0.02% v/v/EDTA and 10 mM HEPES buffer (Cellgro). The peritoneal macrophages were adjusted to 5×10^5 cells/ml and allowed to adhere overnight at 37°C and 5% CO2 in flat bottom 96-well plates. Adherent macrophages were infected at 1∶5 ratio (cells:parasites) with stationary phase LUC-transfected L. donovani promastigotes and cultured at 37°C, 5% CO2, for 2 h. The extracellular parasites were then removed by washing with warm Dulbeco's PBS (Gibco). Infected macrophages were exposed to 2-fold serial dilutions of test compounds as described above for the ex vivo culture system. The infected macrophages were incubated for 48 hr in 5% CO2 atmosphere at 37°C. The number of surviving parasites was determined by luminometry and the effective concentration (EC50) calculated by linear regression (GraphPad Prism 5.0) as described above for the ex vivo system. The mean and standard error of the EC50 from 3 different experiments were considered as the final EC50. […] Tilorone was obtained from Hangzhou Trylead Chemical Tech (China). All compounds were dissolved in sterile dimethyl sulfoxide (analytical grade, cell culture tested; Sigma) and stored frozen at −20°C until used.

[2] = tested on: luciferase-transfected Leishmania donovani; test: Anti-leishmanial efficacy (EC50) in the ex vivo splenic explant model; format: cell-based
Experimental: To establish the plate assay for drug screening, the spleens from 2 infected hamsters were aseptically removed and placed in a Petri dish containing 5 mL of Collagenase D (Roche) at 2 mg/mL of buffer (10 mM Hepes pH 7.4, 150 mM NaCl, 5 mM KCl, 1 mM MgCl2, 1.8 mM CaCl2). The spleen was infiltrated by injection with approximately 2 mL of Collagenase solution, the tissue was cut into small pieces using sharp scissors, and incubated for 20 minutes at 37°C. The cell suspension and remaining tissue fragments were gently passed through a 100 µm cell strainer (B–D) to obtain a single cell suspension, which was washed twice by centrifugation (500 g for 7 min at 4°C) and re-suspended in culture medium composed of DMEM (Gibco), 5% FBS, 1 mM Sodium pyruvate (Gibco), 1X MEM amino acids solution (Sigma), 0.02% v/v/EDTA, 10 mM HEPES buffer (Cellgro) and 100 IU/mL Penicillin/100 […] Streptomycin solution (Cellgro).
The anti-leishmanial efficacy of the compounds was determined using the splenic explant model in a 96-well plate format. […] Because variation in the parasite burden between different explant cultures was expected, the concentration of cells used in each experiment was adjusted to give approximately 100 counts by luminometry (equivalent to ∼240,000 parasites). The number of surviving parasites was determined by luminometry as described above.

[3] = Cell toxicity (CC50) in the HepG2 cell line, CellTiter-Glo; format: cell-based, human; conditions: human
Experimental: After 24 hours of culture at 37°C the number of viable cells was determined by quantification of the ATP present in the cell using the CellTiter-Glo luminescent Cell Viability Assay (Promega).

[4] = tested on: luciferase-transfected Leishmania donovani; test: Primary screening of compound libraries in the ex vivo splenic explant model (Z score); format: cell-based; conditions: 10 µM; for Outcome of library screening (significant Z score / hit): compounds as included in the libraries
Excerpt: The following chemical libraries in 96-well plate format were screened: NINDS Custom Collection II (MicroSource Discovery Systems, Inc.), which consists of 1,040 classical therapeutic agents, established experimental inhibitors, receptor agonist drugs and other bioactive compounds [24], [25], [26]; the Pure Natural Products library (MicroSource Discovery Systems, Inc.) a collection of 800 pure natural products and derivatives; and The Diversity Set and Natural Products set (Developmental Therapeutics Program, NCI/NIH) a set of 2,195 compounds selected from the almost 140,000 compounds based on diversity of structure, [28], [29]. Libraries containing the compounds at 10 mM concentration in DMSO were diluted into master plates at 200 µM concentration in DMEM. The 200 µM master plates were further diluted by transferring an aliquot of 5 µl into a 96-well sterile white-bottom plate (Costar) containing 45 µl of culture medium at 4°C. Splenocytes (100,000 in 50 µl of culture medium) that had been obtained from infected hamsters as described above were added to the assay plate for a final drug concentration of 10 µM. The positive control (splenocytes treated with 0.2 µM Amphotericin B) and negative controls (0.1% DMSO vehicle) were distributed in the two outer columns (8 wells each) of each plate in alternating fashion to minimize any edge effect. After 48 hours of culture at 37°C in a humidified atmosphere and 5% CO2, the plates were centrifuged at 500 g for 7 min, the supernatant discarded using a multi- channel vacuum aspirator (Costar), and 20 µl of 1X cell culture lysis reagent (Promega) was added to the cells. To complete the lysis procedure the plates were frozen at −70°C and then thawed, and the luciferase activity determined in a plate luminometer following addition of 100 µl of the luciferin substrate at room temperature (Promega). The Z score was calculated for each compound as the mean counts of the compound tested minus the mean counts of all compounds in the plate divided by the SD all compounds in the plate. The mean Z score for each drug was calculated based on duplicate screenings performed in two different experiments. A Z score of ≤–1.96, which corresponds to a p value of ≤0.05 (95% confidence limit), was used as the threshold to identify the hits. […] The quality of each assay was determined by calculating the Z prime (Z') factor [31], which measures the discrimination between positive and negative controls in the screen. The Z' factor was calculated as 1 – [(3SD positive controls +3SD negative controls)/absolute value of (mean of the positive controls – mean of the negative controls)].

splenocytes [5] = test: Flow cytometry of propidium iodide stained splenocytes cultured with test compound; conditions: 48 hr culture period, data not shown
Leishmania donovani = test: Discrimination between amphotericin B treated and untreated splenic explant cultures at serial dilutions of cells; format: cell-based; conditions: AMB 0.126 µg/mL, 48 h; for Parasite counts, Treated (AMB): mean ± SD; for Reduction in parasite burden: with reference to controls
splenocytes [6] = tested on: splenocytes
[7] = Leishmania donovani, Peritoneal macrophage, hamster peritoneal macrophages infected in vitro, luminometry, purchased compounds
[8] = Leishmania donovani, 48 h, 48 h of culture, luminometry, purchased compounds dissolved in DMSO, read-out: Ex vivo model EC50 (mean±SE)
[9] = Leishmania donovani, ex vivo splenic explant, 48 h, luminometry, at least two experiments, compound from screened library, read-out: Ex vivo model EC50 Mean

Molecule `CNCCC=C1c2ccccc2CCc2ccccc21` [Nortriptyline] has an EC50 [1, 7] of 2650 ± 350 nM and an EC50 [2, 8] of 6030 ± 280 nM.

Molecule `CCN(CC)C(=S)SSC(=S)N(CC)CC` [Disulfiram] has a CC50 at 24 h [3] of 53000 nM, an EC50 [1, 7] of 160 ± 30 nM and an EC50 [2, 8] of 310 ± 30 nM. The EC50 [2, 9] was 8100 nM.

For `N=C(N)c1ccc(OCCCCCOc2ccc(C(=N)N)cc2)cc1` [Pentamidine], the EC50 [1, 7] was 890 ± 370 nM, the Z score ([4]; 48 h, duplicate screen, hit threshold -1.96) was −1.87 and the “Outcome of library screening (significant Z score / hit)” value (from here on “Outcome … (significant Z score / hit)”) [4] was “did not show a significant Z score”. For the same molecule, the EC50 [2, 8] was 3020 ± 340 nM and the EC50 ([2]; Leishmania donovani, Splenocyte, ex vivo splenocytes system, read-out: EC50) was 3000 nM.

For Meglumine antimoniate, the EC50 ([1]; hamster peritoneal macrophages infected in vitro, luminometry, purchased compounds) was 146000 ± 42000 nM and the EC50 ([2]; 48 h of culture, luminometry, purchased compounds dissolved in DMSO, read-out: Ex vivo model EC50 (mean±SE)) was 270000 ± 57500 nM.

With `CCN(CC)CCOc1ccc2c(c1)C(=O)c1cc(OCCN(CC)CC)ccc1-2` [Tilorone] the CC50 at 24 h ([3]; HepG2 cells, HepG2 cell line, 24 h, ATP luminescence, compound from screened library, read-out: HepG2 CC50 Mean) was 46800 nM, the EC50 [1, 7] was 1480 ± 350 nM and the Splenocyte viability (splenocytes [5]) was “no loss of splenocyte viability”. For the same molecule, the EC50 [2, 8] was 840 ± 470 nM and the EC50 ([2]; Leishmania donovani, 48 h, ex vivo splenic explant, 48 h, luminometry, at least two experiments, compound from screened library, read-out: Ex vivo model EC50 Mean) was 7700 nM.

In the case of `CCCCCCCCCCCCCCCCOP(=O)([O-])OCC[N+](C)(C)C` [Miltefosine], the EC50 [1, 7] is reported as 2280 ± 210 nM, the “Outcome … (significant Z score / hit)” value [4] is reported as “did not show a significant Z score” and the EC50 [2, 8] is reported as 1020 ± 80 nM. For the same molecule, the EC50 ([2]; Leishmania donovani, ex vivo model, freshly solubilized compound from commercial source, read-out: EC50) was 1000 nM and the “Anti-leishmanial activity, repeated testing” value ([2]; compound from the NCI chemical library) was “inactive”.

Work on `CC[C@@]1([C@@H]2O[C@@H]([C@H]3O[C@@](O)(CO)[C@H](C)C[C@@H]3C)C[C@@H]2C)CC[C@H]([C@]2(C)CC[C@]3(C[C@H](O)[C@@H](C)[C@@H]([C@@H](C)[C@@H](OC)[C@H](C)C(=O)O)O3)O2)O1` [Monensin A] yielded an EC50 [1, 7] of 230 ± 150 nM and an EC50 [2, 8] of 850 ± 680 nM.

For `OC(Cn1cncn1)(Cn1cncn1)c1ccc(F)cc1F` [Fluconazole], the EC50 [1, 7] was > 250000 nM, the “Outcome … (significant Z score / hit)” value [4] was “did not show a significant Z score” and the EC50 [2, 8] was > 250000 nM. For the same molecule, the “Activity in the ex vivo system (screen or EC50 determination)” value ([2]; transgenic L. donovani, ex vivo system) was “no activity”.

For `C[C@@H]1[C@H](O)[C@@H](C)/C=C/C=C/C=C/C=C/C=C/C=C/C=C/[C@H](O[C@@H]2O[C@H](C)[C@@H](O)[C@H](N)[C@@H]2O)C[C@@H]2O[C@](O)(C[C@@H](O)C[C@@H](O)[C@H](O)CC[C@@H](O)C[C@@H](O)CC(=O)O[C@H]1C)C[C@H](O)[C@H]2C(=O)O` [Amphotericin B], the CC50 at 24 h [3] was 104000 nM, the EC50 [1, 7] was 110 ± 10 nM and the EC50 [2, 8] was 90 ± 30 nM. The EC50 ([2]; Leishmania donovani, ex vivo model, amphotericin B present in the library (in DMSO vehicle), read-out: EC50) was 10700 ± 900 nM, the “Parasite counts, Treated (AMB)” value (Leishmania donovani; 3,125 cells per well) was 0.1±0.1 photons/sec and the “Reduction in parasite burden” value (Leishmania donovani; 3,125 cells per well) was 83.5%. For the same molecule, the “Parasite counts, Treated (AMB)” value (Leishmania donovani; 6,250 cells per well) was 0.2±0.0 photons/sec, the “Reduction in parasite burden” value (Leishmania donovani; 6,250 cells per well) was 86.3% and the “Parasite counts, Treated (AMB)” value (Leishmania donovani; 12,500 cells per well) was 0.4±0.3 photons/sec. The “Reduction in parasite burden” value (Leishmania donovani; 12,500 cells per well) was 86.2%, the “Parasite counts, Treated (AMB)” value (Leishmania donovani; 25,000 cells per well) was 0.7±0.0 photons/sec and the “Reduction in parasite burden” value (Leishmania donovani; 25,000 cells per well) was 86.4%. For the same molecule, the “Parasite counts, Treated (AMB)” value (Leishmania donovani; 50,000 cells per well) was 2.5±0.5 photons/sec, the “Reduction in parasite burden” value (Leishmania donovani; 50,000 cells per well) was 82.3% and the “Parasite counts, Treated (AMB)” value (Leishmania donovani; 100,000 cells per well) was 8.5±0.2 photons/sec. The “Reduction in parasite burden” value (Leishmania donovani; 100,000 cells per well) was 83.3%, the “Parasite counts, Treated (AMB)” value (Leishmania donovani; 200,000 cells per well) was 34.8±3.7 photons/sec and the “Reduction in parasite burden” value (Leishmania donovani; 200,000 cells per well) was 76.0%. The Splenocyte viability (splenocytes [6]) was “no loss of splenocyte viability”.

`CCCCCC[C@H]1C(=O)O[C@H](C)[C@H](NC(=O)c2cccc(NC=O)c2O)C(=O)O[C@@H](C)[C@@H]1OC(=O)CC(C)C` [ANTIMYCIN A] showed a CC50 at 24 h ([3]; HepG2 cell line, 24 h, ATP luminescence, compound from screened library, read-out: HepG2 CC50 Mean) of 58400 nM, an EC50 ([1]; Leishmania donovani, Peritoneal macrophage, in Mesocricetus auratus) of 1670 ± 1050 nM and an EC50 ([2]; Leishmania donovani, 50% reduction in parasite counts in the ex vivo model, read-out: EC50 Mean (Table S2)) of 11600 nM. For the same molecule, the EC50 ([2]; Leishmania donovani, 48 h of culture, luminometry, purchased compounds dissolved in DMSO, read-out: Ex vivo model EC50 (mean±SE)) was 1270 ± 1070 nM and the EC50 [2, 9] was 11600 nM.

Reference: publication PMC3039689, “Identification of Small Molecule Lead Compounds for Visceral Leishmaniasis Using a Novel Ex Vivo Splenic Explant Model System” (PLoS Neglected Tropical Diseases, 2011)
